In paper PMC8213057, “Targeting ALK2: An Open Science Approach to Developing Therapeutics for the Treatment of Diffuse Intrinsic Pontine Glioma” (Journal of Medicinal Chemistry, 2020):

Tests used:
ALK2/ACVR1 = molecular target: T1, ALK2/ACVR1 (Homo sapiens, UniProt Q04771); format: biochemical; settings: biochemical ALK5 IC50 / ALK2 IC50
T1 construct: purchased Reaction Biology Corporation
T1 sequence (Q04771 21-509): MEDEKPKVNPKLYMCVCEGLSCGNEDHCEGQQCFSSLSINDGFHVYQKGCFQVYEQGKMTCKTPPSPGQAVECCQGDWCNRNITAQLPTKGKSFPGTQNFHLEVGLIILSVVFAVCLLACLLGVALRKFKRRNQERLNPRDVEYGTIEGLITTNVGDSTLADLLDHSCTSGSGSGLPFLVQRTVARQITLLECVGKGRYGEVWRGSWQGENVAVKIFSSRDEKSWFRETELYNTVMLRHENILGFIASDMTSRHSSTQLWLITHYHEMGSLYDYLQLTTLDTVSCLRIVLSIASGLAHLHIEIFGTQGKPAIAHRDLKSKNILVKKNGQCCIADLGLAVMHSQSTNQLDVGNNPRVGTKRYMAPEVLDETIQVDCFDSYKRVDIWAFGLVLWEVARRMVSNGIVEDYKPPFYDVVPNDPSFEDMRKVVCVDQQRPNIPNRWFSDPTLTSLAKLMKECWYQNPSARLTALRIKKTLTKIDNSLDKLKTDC

DDR1 = molecular target: T2, DDR1 (Homo sapiens, UniProt Q08345); test: 375-member kinase panel; format: biochemical; settings: Run 1, Run 2
T2 construct: purchased Reaction Biology Corporation

[1] = 10 mg/kg PO, relative to 8b
BLK = BLK (Homo sapiens, UniProt P51451); settings: 1 μM; Run 1, Run 2
in vivo = settings: female, CB17 SCID, mouse, po, 10 mg/kg
in vitro = settings: human, Caco-2, pH 7.4
CYP2B6 = CYP2B6 (Homo sapiens, UniProt P20813); settings: read-out: CYP2B6 IC50; human liver microsomes
MNK2 = MNK2 (Homo sapiens, UniProt Q9HBH9); settings: 1 μM; Run 1, Run 2
MNK2, sequence (Q9HBH9 whole entry): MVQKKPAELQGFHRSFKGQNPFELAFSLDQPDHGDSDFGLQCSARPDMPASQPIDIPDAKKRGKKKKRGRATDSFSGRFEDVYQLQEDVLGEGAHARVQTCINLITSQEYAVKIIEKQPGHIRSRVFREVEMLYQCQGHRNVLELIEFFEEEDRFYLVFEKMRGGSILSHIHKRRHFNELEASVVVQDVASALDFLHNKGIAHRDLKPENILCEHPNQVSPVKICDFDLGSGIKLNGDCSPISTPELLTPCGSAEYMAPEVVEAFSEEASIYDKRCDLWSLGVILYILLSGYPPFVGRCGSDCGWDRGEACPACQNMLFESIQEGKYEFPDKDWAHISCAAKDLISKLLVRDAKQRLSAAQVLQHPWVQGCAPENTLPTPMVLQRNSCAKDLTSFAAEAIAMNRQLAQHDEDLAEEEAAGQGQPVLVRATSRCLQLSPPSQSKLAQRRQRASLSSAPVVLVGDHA

T2 sequence (Q08345 19-913): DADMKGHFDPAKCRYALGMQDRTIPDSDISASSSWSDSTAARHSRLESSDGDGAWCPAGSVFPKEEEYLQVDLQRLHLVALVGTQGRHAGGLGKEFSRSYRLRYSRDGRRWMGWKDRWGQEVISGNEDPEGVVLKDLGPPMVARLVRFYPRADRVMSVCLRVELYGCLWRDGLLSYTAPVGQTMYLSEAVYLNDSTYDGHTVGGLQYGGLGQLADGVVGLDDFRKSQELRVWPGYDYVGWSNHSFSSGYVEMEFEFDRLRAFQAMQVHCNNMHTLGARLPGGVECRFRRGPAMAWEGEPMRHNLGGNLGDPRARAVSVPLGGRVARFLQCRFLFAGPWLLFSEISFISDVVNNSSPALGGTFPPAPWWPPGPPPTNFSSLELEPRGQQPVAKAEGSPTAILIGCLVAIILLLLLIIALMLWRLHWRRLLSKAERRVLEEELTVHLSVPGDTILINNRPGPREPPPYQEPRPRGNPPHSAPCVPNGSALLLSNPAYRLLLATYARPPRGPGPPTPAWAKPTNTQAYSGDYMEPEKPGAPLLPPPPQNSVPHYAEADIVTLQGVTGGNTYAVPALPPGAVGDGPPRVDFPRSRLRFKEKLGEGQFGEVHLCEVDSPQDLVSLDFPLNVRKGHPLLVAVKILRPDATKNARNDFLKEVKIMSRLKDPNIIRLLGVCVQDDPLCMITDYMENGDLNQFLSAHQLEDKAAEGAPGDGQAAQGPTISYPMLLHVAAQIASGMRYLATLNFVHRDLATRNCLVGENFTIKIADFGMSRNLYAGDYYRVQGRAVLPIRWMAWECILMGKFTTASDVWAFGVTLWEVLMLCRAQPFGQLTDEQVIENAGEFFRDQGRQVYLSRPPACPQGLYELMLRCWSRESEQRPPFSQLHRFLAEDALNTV
CYP2B6, sequence (P20813 whole entry): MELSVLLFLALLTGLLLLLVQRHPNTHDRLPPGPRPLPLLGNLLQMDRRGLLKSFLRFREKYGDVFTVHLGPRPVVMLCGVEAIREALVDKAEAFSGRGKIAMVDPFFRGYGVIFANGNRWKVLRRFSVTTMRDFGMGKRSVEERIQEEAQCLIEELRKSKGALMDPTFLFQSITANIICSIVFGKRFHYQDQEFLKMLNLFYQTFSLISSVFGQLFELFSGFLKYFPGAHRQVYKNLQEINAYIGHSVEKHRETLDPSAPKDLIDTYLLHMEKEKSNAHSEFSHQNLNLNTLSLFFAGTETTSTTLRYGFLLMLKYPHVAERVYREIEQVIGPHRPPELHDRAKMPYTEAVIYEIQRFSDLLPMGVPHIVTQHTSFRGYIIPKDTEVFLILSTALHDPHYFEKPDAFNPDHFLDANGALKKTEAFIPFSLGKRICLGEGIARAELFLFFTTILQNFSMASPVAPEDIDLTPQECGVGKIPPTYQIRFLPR
BLK, sequence (P51451 whole entry): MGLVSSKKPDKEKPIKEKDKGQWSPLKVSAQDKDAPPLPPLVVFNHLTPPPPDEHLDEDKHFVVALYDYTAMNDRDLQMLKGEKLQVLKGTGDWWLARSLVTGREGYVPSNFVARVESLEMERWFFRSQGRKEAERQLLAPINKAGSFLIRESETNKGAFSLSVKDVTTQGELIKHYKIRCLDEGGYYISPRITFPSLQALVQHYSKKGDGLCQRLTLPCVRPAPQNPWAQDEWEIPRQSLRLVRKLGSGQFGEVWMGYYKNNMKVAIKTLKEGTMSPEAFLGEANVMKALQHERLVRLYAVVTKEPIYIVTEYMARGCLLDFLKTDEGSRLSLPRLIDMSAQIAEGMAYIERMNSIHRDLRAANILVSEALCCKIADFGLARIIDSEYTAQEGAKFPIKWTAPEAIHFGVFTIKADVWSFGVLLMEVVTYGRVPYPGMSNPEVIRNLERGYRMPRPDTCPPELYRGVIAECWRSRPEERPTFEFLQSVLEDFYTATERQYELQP

With `COc1cc(-c2cncc(-c3ccc(N4CCN(C)CC4)cc3)c2C)cc(F)c1C(N)=O` [Compound 26a, 2-Fluoro-6-methoxy-4-(4-methyl-5-(4-(4-methylpiperazin-1-yl)phenyl)pyridin-3-yl)benzamide] the “Fold Selectivity (ALK5/ALK2)” value (ALK2/ACVR1) was 350, the “% enzyme activity” value (DDR1; 1 μM) was 31.23% and the remaining activity at 1 µM (DDR1; read-out: % enzyme activity, 1 μM) was 32.1%. The “fold increase in AUCinf” value [1] was > 13 fold, the “fold increase in Cmax” value [1] was “greater than 17 fold” and the “% enzyme activity” value (BLK) was 95.94%. For the same compound, the half-life at 24 h (in vivo) was 2.56 h and the efflux ratio (in vitro) was < 3.
With `COc1cc(-c2cncc(-c3ccc(N4C[C@@H](C)N(C)[C@@H](C)C4)cc3)c2C)cc(F)c1C(N)=O` [Compound 26c, 2-Fluoro-6-methoxy-4-(4-methyl-5-(4-((3R,5S)-3,4,5-trimethylpiperazin-1-yl)phenyl)pyridin-3-yl)benzamide] the IC50 (NanoBRET ALK2) was 100 nM, the IC50 (DLA ALK5) was > 5000 nM and the IC50 (CYP2B6) was > 50000 nM. The “% enzyme activity” value (MNK2) was 68.28%.
